Test results from the Kinase Knowledgebase extract (Sharma et al. 2016).

Target: PIK3CG (human) (UniProt P48736)
Assay: Inhibition of PIK3CG Kinase Activity

Sequence of PIK3CG (human) (P48736 whole entry, looked up): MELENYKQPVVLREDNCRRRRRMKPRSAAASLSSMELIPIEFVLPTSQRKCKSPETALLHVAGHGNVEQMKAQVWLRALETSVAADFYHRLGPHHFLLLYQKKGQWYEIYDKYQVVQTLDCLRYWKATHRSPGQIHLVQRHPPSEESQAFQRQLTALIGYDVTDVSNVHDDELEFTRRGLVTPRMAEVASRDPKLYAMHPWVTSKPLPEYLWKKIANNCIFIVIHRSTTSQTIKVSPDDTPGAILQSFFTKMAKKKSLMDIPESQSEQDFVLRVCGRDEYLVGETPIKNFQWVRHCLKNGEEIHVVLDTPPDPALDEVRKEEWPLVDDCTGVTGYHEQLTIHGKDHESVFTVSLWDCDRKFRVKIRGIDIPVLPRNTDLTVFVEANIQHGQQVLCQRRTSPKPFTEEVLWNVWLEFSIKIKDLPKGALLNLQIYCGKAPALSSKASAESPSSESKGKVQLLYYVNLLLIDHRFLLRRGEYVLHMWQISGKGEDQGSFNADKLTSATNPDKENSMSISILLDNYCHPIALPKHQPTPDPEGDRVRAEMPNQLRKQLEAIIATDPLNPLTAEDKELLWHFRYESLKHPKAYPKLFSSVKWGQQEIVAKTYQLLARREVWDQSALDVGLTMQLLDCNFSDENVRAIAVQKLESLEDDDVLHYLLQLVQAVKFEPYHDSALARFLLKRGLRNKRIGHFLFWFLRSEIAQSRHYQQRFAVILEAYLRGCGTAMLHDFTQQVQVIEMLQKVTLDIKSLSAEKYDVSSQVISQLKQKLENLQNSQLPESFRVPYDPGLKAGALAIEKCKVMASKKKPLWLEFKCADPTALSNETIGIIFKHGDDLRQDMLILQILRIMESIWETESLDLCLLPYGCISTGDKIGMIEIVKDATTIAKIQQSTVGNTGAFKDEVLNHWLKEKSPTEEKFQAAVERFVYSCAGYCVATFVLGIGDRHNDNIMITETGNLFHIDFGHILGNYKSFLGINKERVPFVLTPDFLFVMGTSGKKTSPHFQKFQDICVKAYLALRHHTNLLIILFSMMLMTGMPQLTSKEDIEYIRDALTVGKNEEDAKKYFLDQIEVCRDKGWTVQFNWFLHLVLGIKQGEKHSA

Row | Compound | IC50 [nM]
1 | CN(C)C(=O)Nc1nc2c(s1)-c1c(cnn1-c1ccccc1C(F)(F)F)C2 | < 800
2 | CC(C)(CNc1ccc(C(C)(C)C)cc1)NC(=O)Nc1nc2c(s1)-c1c(cnn1-c1ccccc1Cl)C2 | < 800
3 | O=C(Nc1nc2c(s1)-c1c(cnn1-c1ccccc1Cl)C2)N1CCC(N2CCNC2=O)CC1 | < 800
4 | Nc1cc(CCNC(=O)Nc2nc3c(s2)-c2c(cnn2-c2ccccc2C(F)(F)F)C3)nn1C1CCCC1 | < 800
5 | O=C(NCCO)Nc1nc2c(s1)-c1c(cnn1-c1ccccc1C(F)(F)F)C2 | < 800
6 | CNC(=O)Nc1nc2c(s1)-c1c(cnn1-c1cccc(F)c1C(F)(F)F)C2 | < 800
7 | CNC(=O)Nc1nc2c(s1)-c1c(cnn1-c1ccccc1C(F)(F)F)C2 | < 800
8 | Nc1cc(CCNC(=O)Nc2nc3c(s2)-c2c(cnn2-c2ccccc2C(F)(F)F)C3)[nH]n1 | < 800
9 | CN(C(=O)OC(C)(C)C)C1CCN(C(=O)Nc2nc3c(s2)-c2c(cnn2-c2ccccc2Cl)C3)C1 (configuration not stated) | < 800
10 | O=C(NCCc1ccccn1)Nc1nc2c(s1)-c1c(cnn1-c1ccccc1Cl)C2 | < 800
11 | O=C(Nc1nc2c(s1)-c1c(cnn1-c1ccccc1Cl)C2)N1CCC(n2cnc3ccccc32)CC1 | < 800
12 | O=C(Nc1nc2c(s1)-c1c(cnn1-c1ccccc1Cl)C2)N1CCCC(C(O)c2ccccc2)C1 (configuration not stated) | < 800
13 | CC(C)(C)OC(=O)NCc1ccccc1NC(=O)Nc1nc2c(s1)-c1c(cnn1-c1ccccc1Cl)C2 | < 800
14 | Cc1c[nH]c(CCNC(=O)Nc2nc3c(s2)-c2c(cnn2-c2ccccc2Cl)C3)n1 | < 800
15 | Nc1cc(CNC(=O)Nc2nc3c(s2)-c2c(cnn2-c2ccccc2C(F)(F)F)C3)nn1C1CCCC1 | < 800
16 | C=CCn1cnc(CCNC(=O)Nc2nc3c(s2)-c2c(cnn2-c2ccccc2C(F)(F)F)C3)c1 | < 800
17 | Nc1cc(-c2ccccc2)nn1CCNC(=O)Nc1nc2c(s1)-c1c(cnn1-c1ccccc1C(F)(F)F)C2 | < 800
18 | CC(C)(C)CCNC(=O)Nc1nc2c(s1)-c1c(cnn1-c1ccccc1Cl)C2 | < 800
19 | O=C(NCC1CCCN(c2ncccn2)C1)Nc1nc2c(s1)-c1c(cnn1-c1ccccc1Cl)C2 (configuration not stated) | < 800
20 | CCc1cnc(CCNC(=O)Nc2nc3c(s2)-c2c(cnn2-c2ccccc2C(F)(F)F)C3)o1 | < 800
21 | CCNC(=O)Nc1c(CCNC(=O)Nc2nc3c(s2)-c2c(cnn2-c2ccccc2C(F)(F)F)C3)cnn1C | < 800
22 | CC(C)(C)OC(=O)N1CCCCC1CNC(=O)Nc1nc2c(s1)-c1c(cnn1-c1ccccc1Cl)C2 (configuration not stated) | < 800

Row | Compound | IC50 [nM]
23 | O=C(O)CC1(CNC(=O)Nc2nc3c(s2)-c2c(cnn2-c2ccccc2Cl)C3)CCCCC1 | < 800
24 | Nc1cc(CCNC(=O)Nc2nc3c(s2)-c2c(cnn2-c2ccccc2C(F)(F)F)C3)nn1CC(F)(F)F | < 800
25 | O=C(NCc1cccc(N2CCNC2=O)c1)Nc1nc2c(s1)-c1c(cnn1-c1ccccc1C(F)(F)F)C2 | < 800
26 | Nc1cc(CCNC(=O)Nc2nc3c(s2)-c2c(cnn2-c2ccccc2C(F)(F)F)C3)nn1Cc1ccccc1 | < 800
27 | CCn1ccc(CNC(=O)Nc2nc3c(s2)-c2c(cnn2-c2ccccc2C(F)(F)F)C3)n1 | < 800
28 | O=C(NCc1cocn1)Nc1nc2c(s1)-c1c(cnn1-c1ccccc1C(F)(F)F)C2 | < 800
29 | Cn1cc(CNC(=O)Nc2nc3c(s2)-c2c(cnn2-c2ccccc2Cl)C3)cn1 | < 800
30 | O=C(Nc1nc2c(s1)-c1c(cnn1-c1ccccc1Cl)C2)N1CCC2(CC1)C(=O)NCN2c1ccccc1 | < 800
31 | CN(C)C(=O)CNC(=O)Nc1nc2c(s1)-c1c(cnn1-c1ccccc1C(F)(F)F)C2 | < 800
32 | O=C(NCc1ccccn1)Nc1nc2c(s1)-c1c(cnn1-c1ccccc1C(F)(F)F)C2 | < 800
33 | CCn1nc(CNC(=O)Nc2nc3c(s2)-c2c(cnn2-c2ccccc2C(F)(F)F)C3)cc1N | < 800
34 | O=C1CCC(NC(=O)Nc2nc3c(s2)-c2c(cnn2-c2ccccc2Cl)C3)C(c2ccccc2)N1 (configuration not stated) | < 800
35 | CC(C)n1nc(CNC(=O)Nc2nc3c(s2)-c2c(cnn2-c2ccccc2C(F)(F)F)C3)cc1N | < 800
36 | CC(C)c1nnc(CCNC(=O)Nc2nc3c(s2)-c2c(cnn2-c2ccccc2C(F)(F)F)C3)o1 | < 800
37 | CCCn1ccc(CNC(=O)Nc2nc3c(s2)-c2c(cnn2-c2ccccc2C(F)(F)F)C3)n1 | < 800
38 | CC(C)(C)OC(=O)Nc1cccc(CNC(=O)Nc2nc3c(s2)-c2c(cnn2-c2ccccc2Cl)C3)c1 | < 800
39 | CCNC(=O)Nc1nc2c(s1)-c1c(cnn1-c1ccccc1Br)C2 | < 800
40 | CC1(C)NC(=O)N(Cc2ccc(CNC(=O)Nc3nc4c(s3)-c3c(cnn3-c3ccccc3Cl)C4)cc2)C1=O | < 800
41 | O=C(NCc1ncc[nH]1)Nc1nc2c(s1)-c1c(cnn1-c1ccccc1Cl)C2 | < 800
42 | CCCNC(=O)Nc1nc2c(s1)-c1c(cnn1-c1ccccc1Cl)C2 | < 800
43 | O=C(NCC1CCC(N2CCNC2=O)CC1)Nc1nc2c(s1)-c1c(cnn1-c1ccccc1Cl)C2 (configuration not stated) | < 800
44 | CCCn1cnc(CCNC(=O)Nc2nc3c(s2)-c2c(cnn2-c2ccccc2Br)C3)c1 | < 800

Row | Compound | IC50 [nM]
45 | O=C(NCc1ccncc1)Nc1nc2c(s1)-c1c(cnn1-c1ccccc1C(F)(F)F)C2 | < 800
46 | O=C(NCc1ccc(CN2CCNC2=O)cc1)Nc1nc2c(s1)-c1c(cnn1-c1ccccc1Cl)C2 | < 800
47 | O=C(O)CCCNC(=O)Nc1nc2c(s1)-c1c(cnn1-c1ccccc1C(F)(F)F)C2 | < 800
48 | CCn1cnc(CCNC(=O)Nc2nc3c(s2)-c2c(cnn2-c2ccccc2C(F)(F)F)C3)c1 | < 800
49 | CC(C)(C)OC(=O)N1CCCC(CNC(=O)Nc2nc3c(s2)-c2c(cnn2-c2ccccc2Cl)C3)C1 (configuration not stated) | < 800
50 | O=C(NCc1cccc(N2CCNC2=O)c1)Nc1nc2c(s1)-c1c(cnn1-c1ccccc1Cl)C2 | < 800
51 | O=C(NCCc1cccnc1)Nc1nc2c(s1)-c1c(cnn1-c1ccccc1Cl)C2 | < 800
52 | NC(=O)c1cccc(CNC(=O)Nc2nc3c(s2)-c2c(cnn2-c2ccccc2Cl)C3)c1 | < 800
53 | O=C(NCCc1ccccc1)Nc1nc2c(s1)-c1c(cnn1-c1ccccc1Cl)C2 | < 800
54 | CNC(=O)Nc1nc2c(s1)-c1c(cnn1-c1cc(Cl)ccc1Cl)C2 | < 800
55 | O=C(NCc1nnn[nH]1)Nc1nc2c(s1)-c1c(cnn1-c1ccccc1C(F)(F)F)C2 | < 800
56 | Cc1cc(-c2ccccc2)n(CCNC(=O)Nc2nc3c(s2)-c2c(cnn2-c2ccccc2C(F)(F)F)C3)n1 | < 800
57 | O=C(NCc1cccnc1)Nc1nc2c(s1)-c1c(cnn1-c1ccccc1C(F)(F)F)C2 | < 800
58 | O=C(NCc1nccs1)Nc1nc2c(s1)-c1c(cnn1-c1ccccc1C(F)(F)F)C2 | < 800
59 | CCOC(Cn1nc(CCNC(=O)Nc2nc3c(s2)-c2c(cnn2-c2ccccc2C(F)(F)F)C3)cc1N)OCC | < 800
60 | CCCNC(=O)Nc1nc2c(s1)-c1c(cnn1-c1ccccc1C(F)(F)F)C2 | < 800
61 | CC(C)(C)OC(=O)CCNC(=O)Nc1nc2c(s1)-c1c(cnn1-c1ccccc1Br)C2 | < 800
62 | CCc1cnc(CCNC(=O)Nc2nc3c(s2)-c2c(cnn2-c2ccccc2Br)C3)o1 | < 800
63 | CCOC(=O)Cn1nc(CCNC(=O)Nc2nc3c(s2)-c2c(cnn2-c2ccccc2C(F)(F)F)C3)cc1N | < 800
64 | CN1CCC(CNC(=O)Nc2nc3c(s2)-c2c(cnn2-c2ccccc2Cl)C3)CC1 | < 800

Continued, values first:

Row | IC50 [nM] | Compound
65 | < 800 | CCc1cc(=O)n(CCNC(=O)Nc2nc3c(s2)-c2c(cnn2-c2ccccc2C(F)(F)F)C3)[nH]1
66 | < 800 | O=C(NCc1ccccc1-n1cccn1)Nc1nc2c(s1)-c1c(cnn1-c1ccccc1Cl)C2
67 | < 800 | CN(CCc1cn[nH]c1)C(=O)Nc1nc2c(s1)-c1c(cnn1-c1ccccc1C(F)(F)F)C2
68 | < 800 | CCCNC(=O)Nc1nc2c(s1)-c1c(cnn1-c1cc(Cl)ccc1Cl)C2
69 | < 800 | O=C(Nc1nc2c(s1)-c1c(cnn1-c1ccccc1Cl)C2)N1CCC(N2Cc3ccccc3NC2=O)C1 (configuration not stated)
70 | < 800 | CC(C)(C)c1cc(CNC(=O)Nc2nc3c(s2)-c2c(cnn2-c2ccccc2C(F)(F)F)C3)[nH]n1
71 | < 800 | CCCNC(=O)Nc1nc2c(s1)-c1c(cnn1-c1cccc(F)c1C(F)(F)F)C2
72 | < 800 | O=C(NCCc1nc(C2CC2)no1)Nc1nc2c(s1)-c1c(cnn1-c1ccccc1C(F)(F)F)C2
73 | < 800 | CC(C)NC(=O)Nc1nc2c(s1)-c1c(cnn1-c1ccccc1C(F)(F)F)C2
74 | < 800 | CCCCn1nc(CCNC(=O)Nc2nc3c(s2)-c2c(cnn2-c2ccccc2C(F)(F)F)C3)cc1N
75 | < 800 | CCn1cnc(CCNC(=O)Nc2nc3c(s2)-c2c(cnn2-c2cc(F)ccc2C(F)(F)F)C3)c1
76 | < 800 | O=C(NCc1ccccc1)Nc1nc2c(s1)-c1c(cnn1-c1ccccc1C(F)(F)F)C2
77 | < 800 | O=C(NCc1ccsc1)Nc1nc2c(s1)-c1c(cnn1-c1ccccc1C(F)(F)F)C2
78 | < 800 | CCOC(=O)CNC(=O)Nc1nc2c(s1)-c1c(cnn1-c1ccccc1C(F)(F)F)C2
79 | < 800 | CCOC(=O)CCNC(=O)Nc1nc2c(s1)-c1c(cnn1-c1ccccc1Br)C2
80 | < 800 | CCCCNC(=O)Nc1nc2c(s1)-c1c(cnn1-c1ccccc1C(F)(F)F)C2
81 | < 800 | CC(C)c1nnc(CCNC(=O)Nc2nc3c(s2)-c2c(cnn2-c2ccccc2Cl)C3)o1
82 | < 800 | Cc1cc(CNC(=O)Nc2nc3c(s2)-c2c(cnn2-c2ccccc2C(F)(F)F)C3)nn1C
83 | < 800 | O=C1CC[C@H](NC(=O)Nc2nc3c(s2)-c2c(cnn2-c2ccccc2Cl)C3)CN1
84 | < 800 | Cn1cc(CCNC(=O)Nc2nc3c(s2)-c2c(cnn2-c2ccccc2C(F)(F)F)C3)cn1
85 | < 800 | O=C(NCC1CC1)Nc1nc2c(s1)-c1c(cnn1-c1ccccc1Cl)C2
86 | < 800 | O=C(NCCCN1CCNC1=O)Nc1nc2c(s1)-c1c(cnn1-c1ccccc1Cl)C2
87 | < 800 | O=C(NCc1ccoc1)Nc1nc2c(s1)-c1c(cnn1-c1ccccc1C(F)(F)F)C2
88 | < 800 | Cc1cc(-c2cccnc2)n(CCNC(=O)Nc2nc3c(s2)-c2c(cnn2-c2ccccc2C(F)(F)F)C3)n1
89 | < 800 | O=C(NCc1nnn[nH]1)Nc1nc2c(s1)-c1c(cnn1-c1ccccc1Br)C2
90 | < 800 | NC(=O)Nc1nc2c(s1)-c1c(cnn1-c1ccccc1C(F)(F)F)C2
91 | < 800 | Cc1cc(C)n(CCNC(=O)Nc2nc3c(s2)-c2c(cnn2-c2ccccc2C(F)(F)F)C3)n1
92 | < 800 | CN(Cc1cccs1)C(=O)Nc1nc2c(s1)-c1c(cnn1-c1ccccc1C(F)(F)F)C2
